This series is described as follows: Solubility testing in polyethylene wax (POLYWAX 655). To be noted: 1 g Solvent Black 3 or 2 g distearyl derivative in 50 g POLYWAX 655; 120° C. oil bath, stirred 3 h, then 1 h without stirring. In kind it is physicochemical. The source says: Solvent Black 3 (NEPTUN BLACK X60, BASF), of the formula
[drawing 36] molecular weight 456, and the distearyl derivative, a compound as disclosed herein, of the formula
[drawing 37] molecular weight 892, were compared for solubility in polyethylene wax, a predominant component in phase change inks. 1 g of the Solvent Black 3 and 2 g of the distearyl derivative (because its molecular weight was about twice that of Solvent Black 3) were each dissolved in 50 g portions of POLYWAX 655 (Baker Petrolite) in 100 mL beakers equipped with magnetic stir bars. The solutions were placed in 120° C. oil baths and allowed to stir for 3 h, followed by cessation of stirring for 1 h, after which the solutions were poured into aluminum tins.

Each structure is given as a SMILES string.

As to `CC1(C)Nc2cccc3c(/N=N/c4ccc(/N=N/c5ccccc5)c5ccccc45)ccc(c23)N1` [Solvent Black 3], the “solubility in polyethylene wax (solids on the bottom of the beaker)” value is recorded as “a substantial amount of the Solvent Black 3 appeared on the bottom of its beaker”.
Under `CCCCCCCCCCCCCCCCCC1(CCCCCCCCCCCCCCCCC)Nc2cccc3c(/N=N/c4ccc(/N=N/c5ccccc5)c5ccccc45)ccc(c23)N1` [distearyl derivative] stands “almost no solids appeared on the bottom of the beaker”.

The values are drawn from US9309410B2, “Colorant compounds” (Xerox Corporation, priority 2013, dated 2016).
